In US10570176B2, “Anti-hepatitis B virus X protein polypeptide pharmaceutical” (priority 2015, dated 2020):
pKd: −log10 of the molar value. Values joined by “and” are separate entries in the source; they are usually repeats but may differ in a detail not shown here. Identical values can stand only once. Marks after values point to notes of the source that are not given here. Non-standard residues stand in square brackets, D forms with d. Residues, ends and D or L forms follow the SMILES beside them.

How the values were obtained:
HBx protein = molecular target: T1, HBx protein (Hepatitis B virus genotype D subtype ayw, UniProt P03165); assay: In vitro binding to recombinantly expressed HBx protein, Biacore 3000
T1 construct: made in house
Procedure: The recombinant plasmid (pET-30a-HBx) expressing HBx gene was self-constructed and preserved (Zhang H, et al. J Biomed Biotechnol, doi:10.1155/2009/289068), and then expression and purification of HBx were conducted according to above reference for the measurement of in vitro binding ability. Biacore 3000 biomolecular interaction analyzing unit (manufactured by GE Healthcare) was utilized to measure in vitro binding ability of polypeptide D-TTK001 to recombinantly expressed HBx protein. Polypeptide at different concentrations were injected for 180 seconds at a rate of 30 μL/min. In dissociation stage, HBS-EP buffer was injected for 900 seconds at a rate of 30 μL/min, then at a rate of 30 μL/min, 2 shots of 1 mM NaOH were injected for 20 seconds to regenerate the chip. All signals were calibrated using channel 1 as the reference channel. Binding measurement was conducted twice, respectively, wherein in the first measurement, HBX was injected into the channel of the coupled polypeptide and the blank channel at concentrations of 0 nM, 10 nM, 50 nM, 100 nM, 500 nM and 600 nM, respectively. Binding time was 180 seconds and dissociation time was 400 seconds. On chip surface, 1 mM NaOH was injected for 20 seconds at a rate of 30 μL/min for regeneration. In the second measurement, HBX was injected into the channel of coupled polypeptide and the blank channel at concentrations of 0 nM, 10 nM, 50 nM, 588 nM, 1 μM, and 2 μM, respectively. Binding time was 180 seconds and dissociation time was 400 seconds. On chip surface, 1 mM NaOH was injected for 20 seconds at a rate of 30 μL/min for regeneration. Results were kinetically analyzed by BIA Evaluation Software.

HepG2.2.15 cells = assay: HBeAg secretion ELISA in HepG2.2.15 cells; format: cell-based; conditions: 0.1, 1, 10, 100 μM
Procedure: 3. Analysis of function of D-TTK001 on HBeAg secreation in liver cancer cells utilizing enzyme-linked immunosorbent assay (ELISA)
(i) Biosafety cabinet was ultraviolet sterilized for 30 min and purged for 30 min; DMEM/F12 (1:1) culture medium containing 15% fetal bovine serum, HepAD38 cells (or HepG2.2.15 cells) were taken out, sterilized with 75% alcohol, and placed in the biosafety cabinet.
(ii) Under aseptic conditions, discard old culture medium, add 3 mL 1×PBS each time, wash twice, add 1 mL 0.25% trypsin, the cells were digested until cell rounding as observed in microscope. Add 5 mL culture medium, dispense cells, count with hemocytometer, and dilute with culture medium to a cell number of 1˜2×10^4 cells/mL.
(iii) Plating 96-well plate. Under aseptic conditions, discard old culture medium, add 3 mL 1×PBS each time, wash twice, add 1 mL 0.05% trypsin, the cells were digested until cell rounding as observed in microscope. Add 10 mL culture medium, dispense cells, count with hemocytometer, and dilute with DMEM/F12(1:1) culture medium, add 100 μL cell suspension into each well to a cell number of 1˜2×10^3 cells/mL. […]
(x) Stopping: add 50 μL of stop solution into each well, gently shake and mix, measure the result in ten minutes. Set wavelength of microplate reader to 450 nm, measure OD value for each well after zero setting with blank wells.

T1 sequence (P03165 whole entry): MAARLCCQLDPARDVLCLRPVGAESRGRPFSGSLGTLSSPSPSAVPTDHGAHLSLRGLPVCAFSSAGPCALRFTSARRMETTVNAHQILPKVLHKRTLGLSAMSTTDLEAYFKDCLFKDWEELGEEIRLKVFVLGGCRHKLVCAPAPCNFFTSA

With CSCC[C@@H](NC(=O)[C@H](NC(=O)[C@@H](C)NC(=O)[C@@H](CO)NC(=O)CN)C(C)C)C(=O)N[C@H](Cc1ccccc1)C(=O)N[C@H](CO)C(=O)N[C@H](CO)C(=O)N[C@H](CCCCN)C(=O)N[C@H](CCC(=O)O)C(=O)N[C@H](CCCNC(=N)N)C(=O)NCC(=O)O [D-TTK001, Gly-D-Ser-D-Ala-D-Val-D-Met-D-Phe-D-Ser-D-Ser-D-Lys-D-Glu-D-Arg-Gly] (H-G[dS][dA][dV][dM][dF][dS][dS][dK][dE][dR]G-OH; N-terminus and C-terminus assumed) the pKd (HBx protein; KD, Biacore 3000, first and second measurement) was 7.52 and 7.39, the “in vitro binding to HBx compared with L-polypeptide anti-HBxP1#” value (HBx protein; comparison in words) was “lower than that of L-polypeptide anti-HBxP1#” and the pKd (HBx protein; in vitro binding to HBx, in vitro binding analysis results) was 7.46. The “Minimum effective dose on HBeAg secretion levels” value (HepG2.2.15 cells) was 0.1 µM.
